Results: ChEMBL document CHEMBL1765046, “Small molecule inhibitor of the RPA70 N-terminal protein interaction domain discovered using in silico and in vitro methods” (Bioorg Med Chem, 2011)
Activity calls are given as the source filed them. The calls are words filed in the database; no cut-off is given here.

Assays:
[1] = target: Replication protein A 70 kDa DNA-binding subunit (Homo sapiens) (UniProt P27694); assay: Inhibition of recombinant human N-terminal domain of RPA70 DNA binding domain-F binding to 30-mer double strand DNA at <100 uM preincubated for 5mins before dsDNA addition measured after 30 mins by electrophoretic mobility shift assay
[2] = target: Replication protein A 70 kDa DNA-binding subunit (Homo sapiens) (UniProt P27694); assay: Inhibition of recombinant human N-terminal domain of RPA70 DNA binding domain-F binding to 30-mer single strand DNA at <100 uM preincubated for 5mins before ssDNA addition measured after 30 mins by electrophoretic mobility shift assay
[3] = target: Cellular tumor antigen p53/Replication protein A 70 kDa DNA-binding subunit (Homo sapiens, UniProt P04637+P27694); assay: Inhibition of GST-tagged p53/recombinant human N-terminal domain of RPA70 DNA binding domain interaction by ELISA-like plate binding assay
Cellular tumor antigen p53/Replication protein A 70 kDa DNA-binding subunit, sequence (P04637 whole entry, the tested form may be a part): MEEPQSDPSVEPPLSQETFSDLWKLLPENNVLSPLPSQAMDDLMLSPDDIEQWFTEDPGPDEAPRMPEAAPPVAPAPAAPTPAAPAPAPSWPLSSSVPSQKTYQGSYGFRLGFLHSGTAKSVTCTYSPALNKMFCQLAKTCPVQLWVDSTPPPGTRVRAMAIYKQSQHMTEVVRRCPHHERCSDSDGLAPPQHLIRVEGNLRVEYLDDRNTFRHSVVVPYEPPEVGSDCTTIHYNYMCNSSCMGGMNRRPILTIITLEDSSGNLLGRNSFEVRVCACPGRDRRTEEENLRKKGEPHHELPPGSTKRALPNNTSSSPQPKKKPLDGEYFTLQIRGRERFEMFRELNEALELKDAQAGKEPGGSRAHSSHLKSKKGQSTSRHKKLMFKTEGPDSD
Cellular tumor antigen p53/Replication protein A 70 kDa DNA-binding subunit, sequence (P27694 whole entry, the tested form may be a part): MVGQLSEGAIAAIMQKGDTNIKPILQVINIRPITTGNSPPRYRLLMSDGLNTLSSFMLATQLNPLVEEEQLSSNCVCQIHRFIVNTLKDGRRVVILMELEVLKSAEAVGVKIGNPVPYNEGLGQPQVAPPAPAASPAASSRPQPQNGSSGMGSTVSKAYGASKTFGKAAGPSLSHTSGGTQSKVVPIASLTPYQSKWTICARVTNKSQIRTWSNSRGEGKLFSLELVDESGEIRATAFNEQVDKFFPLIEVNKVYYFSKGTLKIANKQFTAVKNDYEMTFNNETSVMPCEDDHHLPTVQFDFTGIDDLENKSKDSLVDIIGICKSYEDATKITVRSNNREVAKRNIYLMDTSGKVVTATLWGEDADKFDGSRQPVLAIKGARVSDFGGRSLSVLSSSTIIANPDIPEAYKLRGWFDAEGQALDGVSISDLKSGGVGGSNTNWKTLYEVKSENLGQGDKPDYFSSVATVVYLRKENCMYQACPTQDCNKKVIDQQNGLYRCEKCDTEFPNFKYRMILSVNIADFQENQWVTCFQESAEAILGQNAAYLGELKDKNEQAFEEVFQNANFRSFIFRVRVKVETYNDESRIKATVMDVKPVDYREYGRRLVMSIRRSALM

Replication protein A 70 kDa DNA-binding subunit (Homo sapiens), sequence (P27694 whole entry, the tested form may be a part): as above

CC(C)C1=CC23CCC4C(C)(C(=O)O)CCCC4(C)C2CC1C(C(=O)O)C3C(=O)O (stereo not drawn)
inhibition [1]: Active | inhibition [2]: inactive | IC50 [3]: 10 µM
